Each structure is given as a SMILES string. Some results are limits rather than exact numbers.

The target in one data set is T1, JAK1 (Homo sapiens, UniProt P23458).
T1 construct: purchased Carna Biosciences
Briefly: JAK1 microfluidic kinase assay (Caliper EZ Reader II, FAM labeled peptide substrate). The note with it: IC50 JAK1 (5 nM) (1 m MATP), JAK1 5 nM, 1 mM ATP. Type of data set: biochemical. In short, it runs like this: (§1)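 3-fold serial dilutions, top 5 μM, 1% DMSO final; 10 min preincubation with enzyme, RT. Buffer: 50 mM HEPES, 0.01% Brij35, 10 mM MgCl2, 2 mM DTT. Enzyme batch tuned to 10% peptide conversion. EDTA stop, mobility-shift readout, IC50 fit.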

The target of another data set is T2, JAK2 (Homo sapiens, UniProt O60674).
T2 construct: purchased Carna Biosciences
The data set can be described thus: JAK2 microfluidic kinase assay (Caliper EZ Reader II, FAM labeled peptide substrate). Type of data set: biochemical. In short, it runs like this:
as §1

The next data set has as its target T3, JAK2V617F (Homo sapiens, UniProt O60674, V617F).
T3 construct: purchased Carna Biosciences
Briefly: JAK2V617F microfluidic kinase assay (Caliper EZ Reader II, FAM labeled peptide substrate). Conditions: JAK2V617F 2.5 nM, 1 mM ATP. Type of data set: biochemical. In short, it runs like this:
as §1

The target of a further data set is T4, FLT3D835Y (Homo sapiens, UniProt P36888, D835Y).
T4 construct: purchased Carna Biosciences
T4 sequence (P36888 27-993 D835Y): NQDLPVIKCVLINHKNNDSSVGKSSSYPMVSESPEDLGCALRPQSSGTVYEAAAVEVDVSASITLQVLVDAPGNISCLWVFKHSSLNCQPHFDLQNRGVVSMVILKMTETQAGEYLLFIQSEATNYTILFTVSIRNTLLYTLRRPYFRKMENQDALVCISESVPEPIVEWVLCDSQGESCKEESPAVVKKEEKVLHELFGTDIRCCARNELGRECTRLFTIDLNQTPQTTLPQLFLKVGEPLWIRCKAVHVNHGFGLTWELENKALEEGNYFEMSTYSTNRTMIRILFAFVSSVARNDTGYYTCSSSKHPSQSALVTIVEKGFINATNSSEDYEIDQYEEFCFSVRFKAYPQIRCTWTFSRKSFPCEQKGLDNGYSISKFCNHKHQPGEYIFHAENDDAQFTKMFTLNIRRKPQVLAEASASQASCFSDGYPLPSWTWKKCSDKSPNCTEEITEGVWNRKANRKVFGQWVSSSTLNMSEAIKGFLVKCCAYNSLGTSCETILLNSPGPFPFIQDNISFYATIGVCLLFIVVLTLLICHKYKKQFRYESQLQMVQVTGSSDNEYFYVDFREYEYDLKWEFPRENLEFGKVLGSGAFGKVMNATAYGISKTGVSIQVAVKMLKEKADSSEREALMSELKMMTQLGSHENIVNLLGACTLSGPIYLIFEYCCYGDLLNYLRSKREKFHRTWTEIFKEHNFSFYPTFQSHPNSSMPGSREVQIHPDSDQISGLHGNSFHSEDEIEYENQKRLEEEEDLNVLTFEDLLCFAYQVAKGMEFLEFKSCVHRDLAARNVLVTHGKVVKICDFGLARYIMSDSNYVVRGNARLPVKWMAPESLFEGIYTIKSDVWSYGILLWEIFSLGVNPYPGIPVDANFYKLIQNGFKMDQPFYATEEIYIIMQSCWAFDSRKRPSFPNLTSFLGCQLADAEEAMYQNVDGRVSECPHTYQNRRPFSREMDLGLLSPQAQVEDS
Briefly: FLT3D835Y microfluidic kinase assay. The data set is classed as biochemical. The procedure:
Compounds were tested against FLT3, FLT3ITD and FLT3D835Y.
Assay Formats: FLT3 activity was determined in the reaction buffer 50 mM HEPES, 10 mM MgCl2 and 2 mM DTT by a microfluidic assay. The phosphorylation of a FAM labeled peptide substrate was monitored in the Caliper EZ Reader II (Perkin Elmer). The assay condition for each batch of enzyme (Carna Biosciences) was optimized to obtain 10% conversion rate of peptide substrate.
The test compounds were dissolved in DMSO to a stock concentration of 10 mM. 3-fold serially diluted compounds with top concentration of 5 μM were pre-incubated with FLT3, FLT3ITD or FLT3D835Y for 10 min at ambient temperature. The final DMSO concentration of assay mixture was 1%. […] The reaction was stopped by adding 50 mM EITA. The reaction time for FLT3, FLT3ITD and FLT3D8335Y was 30 min, 40 min and 40 min, respectively.
And the well without compound but with equivalent DMSO was defined as no inhibition. The percent inhibition was calculated by the following formula. % Inhibition=(Conversionmax−Conversionsample)/(Conversionmax−Conversionmin)*100 • Conversionmax means the conversion rate in the positive well without addition of compound • Conversionmin means the conversion rate in the well without addition of enzyme • Conversionsample means the conversion rate of test compounds
The dose-response (percent inhibition) curve was plotted and IC50 values were determined by GraphPad software.

The nature of data set [1]: Liver microsomes study, Phase I stability (RLM). Type of data set: in vitro ADME, rat. Conditions: pH 7.4; rat liver microsomes 0.5 mg/mL, 1 μM test article; read-out: RLM Clint. In short, it runs like this: (§2)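 Phase I turnover was followed by LC/MS/MS of parent compound remaining at 0, 10, 30 and 90 min in NADPH-fortified rat or human microsomes, with cold acetonitrile quench. Half-life and intrinsic clearance were derived from the log-linear depletion slope and the inverse protein concentration.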

Data set [2] can be described thus: Liver microsomes study, Phase I stability (HLM). The data set is classed as in vitro ADME, human. Conditions: pH 7.4; human liver microsomes 0.5 mg/mL, 1 μM test article; read-out: HLM Clint. The gist of the method: as §2
(Microsomes from liver hold many membrane-bound enzymes, among them those of drug oxidation.)

Data set [3] can be described thus: Rat pharmacokinetic study (intravenous and oral). The data set is classed as in vivo. The note with it: male, plasma, Sprague-Dawley rats, solution. Here is the method: Pharmacokinetic profile of test articles in rodent were evaluated in fasted male ICR mouse and Sprague-Dawley rats. […] Typically, mice were dosed with 2 mg/kg and 10 mg/kg by intravenous injection and oral gavage, respectively. Rats were dosed with 1 mg/kg and 5 mg/kg by intravenous injection and oral gavage, respectively. Beagle dogs were dosed with 1 mg/kg and 5 mg/kg by intravenous injection and oral gavage, respectively. After dosing, blood samples were collected at each time point. For IV injection group, time points were set at 5, 15, 30 min, and then 1, 2, 4, 8 and 24 hours after dosing. For oral gavage group, timepoints were set at 15, 30 m, and then 1, 2, 4, 8, and 24 hours. Blood was collected into appropriately labeled tubes containing K2EDTA as the anticoagulant. Plasma was obtained within 1 hours of blood collection by centrifugation at 8000×g and 4° C. for 6 minutes, and then stored at −20° C. until analyzed by LCMS/MS for quantification.

Data set [4] in a line: Rat pharmacokinetic study (intravenous and oral). The data set is classed as in vivo. Conditions: Sprague-Dawley rats, oral, solution.
Another data set concerns the target T5, TYK2 (Homo sapiens, UniProt P29597).
T5 construct: purchased Carna Biosciences
Briefly: TYK2 microfluidic kinase assay (Caliper EZ Reader II, FAM labeled peptide substrate). The data set is classed as biochemical. The note with it: IC50 TYK2 ([…]) (1 mM ATP), TYK2 […], 1 mM ATP. The gist of the method: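 Percent inhibition of peptide phosphorylation, read by microfluidic mobility shift, gave IC50s. Compounds were preincubated with enzyme 10 min before reaction; timing was kinase-specific (JAK1 120 min, TYK2 10 min, JAK2 20 min, JAK2V617F 30 min).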

Data set [5] in a line: Mini-pig dermal pharmacokinetic study. Type of data set: in vivo, Guangxi Bama mini-pigs. The note with it: topical administration. The text has this:
The aim of this study was to obtain the topical distribution of test articles in mini-pig after topical administration. Test articles were formulated in 50% PEG400, 10% transcutol and 40% PEG3350 (50% in water), and then applied to male Guangxi Bama mini-pigs (17-20 kg). Twenty-four hour prior to dosing, the hair of the mini-pig was shaved in left and right sides of the back. Two areas at least 5 cm apart at each side of the back were exposed (a total of four areas, each of which was about 112 cm^2). At the time zero, the test article was dosed to the exposed skins with […]. After dosing, the blood and skin samples were collected at 0.5, 1, 3, 6 hour. The blood was taken via venipuncture, and collected to the tubes containing heparin sodium as the anticoagulant. Exposed skin was washed with soap and water before skin sample was collected. Upon the dosed skin the punch biopsy from the epidermis layer to the muscle layer were taken at each time point. Epidermis, dermis, subcutis and subcutaneous muscle were quickly separated, weighed and frozen in dry ice. Epidermis and dermis were homogenized in 1:3 (w/v) normal saline. Homogenized samples were extracted with 3 fold volumes of acetonitrile and quantified against a standard curve with LC-MS/MS system.

The mark [6] stands for this setting: IC50 JAK2 ([…]) (1 mM ATP), 1 mM ATP.

T2 sequence (O60674 whole entry): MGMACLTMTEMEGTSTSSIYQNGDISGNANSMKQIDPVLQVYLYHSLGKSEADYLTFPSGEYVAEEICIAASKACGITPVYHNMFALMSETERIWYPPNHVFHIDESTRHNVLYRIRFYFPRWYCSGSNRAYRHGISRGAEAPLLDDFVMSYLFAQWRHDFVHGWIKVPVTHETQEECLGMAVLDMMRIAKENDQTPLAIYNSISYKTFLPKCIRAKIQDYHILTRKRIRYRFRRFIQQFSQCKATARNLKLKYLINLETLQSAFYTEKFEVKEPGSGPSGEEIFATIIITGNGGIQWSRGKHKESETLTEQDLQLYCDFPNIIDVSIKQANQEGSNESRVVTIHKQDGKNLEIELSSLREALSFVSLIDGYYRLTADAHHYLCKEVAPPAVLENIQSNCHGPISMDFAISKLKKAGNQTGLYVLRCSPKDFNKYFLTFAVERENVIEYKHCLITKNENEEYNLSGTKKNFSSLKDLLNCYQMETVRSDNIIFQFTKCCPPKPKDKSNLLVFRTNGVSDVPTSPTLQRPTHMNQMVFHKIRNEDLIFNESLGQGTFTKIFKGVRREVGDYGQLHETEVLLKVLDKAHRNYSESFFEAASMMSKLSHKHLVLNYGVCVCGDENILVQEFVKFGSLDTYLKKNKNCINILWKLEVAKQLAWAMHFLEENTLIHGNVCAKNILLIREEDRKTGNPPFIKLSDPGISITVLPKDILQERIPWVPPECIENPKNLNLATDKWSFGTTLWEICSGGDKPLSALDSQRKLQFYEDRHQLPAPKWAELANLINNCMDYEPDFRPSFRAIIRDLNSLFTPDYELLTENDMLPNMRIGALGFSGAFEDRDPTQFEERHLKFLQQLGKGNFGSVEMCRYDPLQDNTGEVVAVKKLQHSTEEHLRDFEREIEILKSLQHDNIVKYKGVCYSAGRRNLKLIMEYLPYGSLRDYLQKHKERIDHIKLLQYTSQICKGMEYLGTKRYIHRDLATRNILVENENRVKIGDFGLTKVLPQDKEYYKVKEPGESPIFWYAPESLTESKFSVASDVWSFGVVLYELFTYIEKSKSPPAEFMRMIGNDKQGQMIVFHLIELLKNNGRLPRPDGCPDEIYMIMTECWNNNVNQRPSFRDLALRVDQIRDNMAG
T1 sequence (P23458 whole entry): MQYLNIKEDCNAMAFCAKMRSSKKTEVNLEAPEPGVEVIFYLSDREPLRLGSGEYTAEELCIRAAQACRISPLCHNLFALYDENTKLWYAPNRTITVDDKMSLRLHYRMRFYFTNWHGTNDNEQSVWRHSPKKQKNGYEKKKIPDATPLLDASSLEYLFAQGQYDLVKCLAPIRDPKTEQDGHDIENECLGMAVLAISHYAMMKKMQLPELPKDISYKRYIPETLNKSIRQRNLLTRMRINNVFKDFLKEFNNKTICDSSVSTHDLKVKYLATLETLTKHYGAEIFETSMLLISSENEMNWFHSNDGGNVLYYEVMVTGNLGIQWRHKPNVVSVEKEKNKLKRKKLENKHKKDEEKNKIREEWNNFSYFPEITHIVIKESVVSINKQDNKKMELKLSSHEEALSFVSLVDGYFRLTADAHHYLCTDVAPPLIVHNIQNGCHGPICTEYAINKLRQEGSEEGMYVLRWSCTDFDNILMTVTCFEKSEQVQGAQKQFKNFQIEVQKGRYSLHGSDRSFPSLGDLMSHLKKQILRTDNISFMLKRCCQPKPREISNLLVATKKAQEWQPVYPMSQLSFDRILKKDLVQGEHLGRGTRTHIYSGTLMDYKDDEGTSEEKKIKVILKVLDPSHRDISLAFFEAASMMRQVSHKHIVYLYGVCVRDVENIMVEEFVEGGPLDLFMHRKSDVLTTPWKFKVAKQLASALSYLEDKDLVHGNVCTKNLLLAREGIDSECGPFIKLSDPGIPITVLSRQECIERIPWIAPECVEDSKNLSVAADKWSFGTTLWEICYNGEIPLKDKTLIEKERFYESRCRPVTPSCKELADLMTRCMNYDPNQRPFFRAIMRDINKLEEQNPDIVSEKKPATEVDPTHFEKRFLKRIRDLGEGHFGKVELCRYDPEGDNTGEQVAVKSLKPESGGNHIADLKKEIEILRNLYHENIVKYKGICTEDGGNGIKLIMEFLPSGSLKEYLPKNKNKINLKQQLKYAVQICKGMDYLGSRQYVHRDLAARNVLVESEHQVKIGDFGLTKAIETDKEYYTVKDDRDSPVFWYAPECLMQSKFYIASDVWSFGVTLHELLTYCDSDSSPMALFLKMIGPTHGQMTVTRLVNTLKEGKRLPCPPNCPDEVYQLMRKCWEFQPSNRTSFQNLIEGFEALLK
T3 sequence (O60674 whole entry V617F): as the sequence (O60674 whole entry) above, with V617F counted along it
T5 sequence (P29597 whole entry): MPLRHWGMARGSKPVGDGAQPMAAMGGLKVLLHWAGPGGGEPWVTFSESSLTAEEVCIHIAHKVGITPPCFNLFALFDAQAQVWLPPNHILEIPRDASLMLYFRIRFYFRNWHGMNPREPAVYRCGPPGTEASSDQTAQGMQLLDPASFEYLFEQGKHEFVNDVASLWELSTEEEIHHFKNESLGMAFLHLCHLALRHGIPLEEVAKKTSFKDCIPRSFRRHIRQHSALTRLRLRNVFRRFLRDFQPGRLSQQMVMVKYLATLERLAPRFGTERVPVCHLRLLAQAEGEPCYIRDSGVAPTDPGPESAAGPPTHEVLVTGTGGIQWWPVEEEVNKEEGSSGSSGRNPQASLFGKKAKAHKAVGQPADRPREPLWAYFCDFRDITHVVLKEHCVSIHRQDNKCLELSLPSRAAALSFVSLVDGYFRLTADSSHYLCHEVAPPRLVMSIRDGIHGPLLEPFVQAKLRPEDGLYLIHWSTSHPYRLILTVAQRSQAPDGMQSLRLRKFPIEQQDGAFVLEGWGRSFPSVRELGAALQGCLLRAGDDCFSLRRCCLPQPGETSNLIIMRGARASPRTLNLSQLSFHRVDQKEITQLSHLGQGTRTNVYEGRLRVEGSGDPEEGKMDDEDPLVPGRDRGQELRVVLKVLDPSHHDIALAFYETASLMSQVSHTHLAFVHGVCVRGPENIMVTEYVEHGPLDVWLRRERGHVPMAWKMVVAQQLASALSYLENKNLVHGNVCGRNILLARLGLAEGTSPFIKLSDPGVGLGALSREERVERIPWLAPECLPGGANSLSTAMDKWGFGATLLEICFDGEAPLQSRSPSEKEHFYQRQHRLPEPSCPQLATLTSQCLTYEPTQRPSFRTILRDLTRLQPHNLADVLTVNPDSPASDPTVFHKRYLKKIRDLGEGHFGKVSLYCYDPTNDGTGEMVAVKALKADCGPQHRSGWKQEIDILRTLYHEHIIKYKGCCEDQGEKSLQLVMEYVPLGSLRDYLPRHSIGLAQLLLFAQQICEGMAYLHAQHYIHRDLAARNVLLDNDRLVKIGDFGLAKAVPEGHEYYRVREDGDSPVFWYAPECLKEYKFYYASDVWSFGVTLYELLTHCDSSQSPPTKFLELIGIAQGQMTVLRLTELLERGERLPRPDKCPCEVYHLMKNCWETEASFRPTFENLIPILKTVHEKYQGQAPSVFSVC

For `Cc1cnc(Nc2cnn(C3CCN(C(=O)C4(C)CC4)CC3)c2)nc1-c1ccc(C(=O)NCC#N)cc1` [Example 38, N-(cyanomethyl)-4-(5-methyl-2-((1-(1-(1-methylcyclopropanecarbonyl)piperidin-4-yl)-1H-pyrazol-4-yl)amino)pyrimidin-4-yl)benzamide], the IC50 (usually the midpoint of a concentration-inhibition curve) against JAK1 is 13 nM; at JAK2 (setting [6]), below 0.25 nM; at JAK2V617F, below 0.25 nM; against FLT3D835Y it was 7.87 nM. Also, the results for the microsomal CLint at 1 μM in data set [1] and in data set [2] were 61 µL/min/mg and 77.2 µL/min/mg, respectively. Moreover, the AUC – broadly, concentration integrated over time – in [3] (intravenous, 1 mg/kg) worked out at 2880 ng·h/mL; in [3] (oral, 5 mg/kg), 1170 ng·h/mL. In [3] (intravenous, 1 mg/kg), this compound showed a Vd of 0.28 L/kg. This compound also came in with a clearance in [3] (intravenous, 1 mg/kg) of 6.3 mL/min/kg. Also, the half-life (as a rule, how long it takes for the measured level to halve) in [3] (intravenous, 1 mg/kg) is 33.6 min; in [3] (oral, 5 mg/kg), 84 min. The peak level in data set [3] (oral, 5 mg/kg) (Cmax) was 924 ng/mL. This compound gave a F in data set [4] (5 mg/kg) of 8.36%.
For the compound `Cc1cnc(Nc2cnn(C)c2)nc1-c1ccc(C(=O)NCC(C)(C)C#N)cc1` [Example 13, N-(2-Cyano-2-methylpropyl)-4-(5-methyl-2-((1-methyl-1H-pyrazol-4-yl)amino)pyrimidin-4-yl)benzamide], the IC50 at JAK1 is 34.3 nM; against JAK2 (setting [6]) it was 78.7 nM; against JAK2 (IC50 JAK2 ([…]) (Km ATP), Km ATP), 2.7 nM; against FLT3D835Y it was 57.4 nM. For the same compound, the microsomal CLint at 1 μM came out at 120 µL/min/mg in data set [1] and 1.5 µL/min/mg in data set [2]. In data set [3] (intravenous, 1 mg/kg), this compound gave an AUC of 880 ng·h/mL. In addition, the Vd in data set [3] (intravenous, 1 mg/kg) is 0.6 L/kg. Also, the clearance in data set [3] (intravenous, 1 mg/kg) came out at 18.9 mL/min/kg. The same compound gave a half-life in data set [3] (intravenous, 1 mg/kg) of 21.6 min.
`C[C@@H](C#N)NC(=O)c1ccc(-c2nc(Nc3cnn(C4CCOCC4)c3)ncc2Cl)cc1` [Example 39, (S)-4-(5-chloro-2-((1-(tetrahydro-2H-pyran-4-yl)-1H-pyrazol-4-yl)amino)pyrimidin-4-yl)-N-(1-cyanoethyl)benzamide] returned an IC50 against JAK1 of 18.7 nM. At JAK2V617F, this compound displayed an IC50 of 5.37 nM. Besides, the microsomal CLint at 1 μM in data set [1] was determined as 27.5 µL/min/mg. In addition, in [2], the microsomal CLint at 1 μM was found to be 54.8 µL/min/mg. For the same compound, in [3] (intravenous, 1 mg/kg), the AUC was found to be 951 ng·h/mL, the Vd stood at 0.7 L/kg, the clearance worked out at 17.5 mL/min/kg and the half-life is 27.6 min. Besides, the F in data set [4] (10 mg/kg) turned out to be 11.99%. In data set [4] (male, rat, plasma, 10 mg/kg), the AUC turned out to be 1090 ng·h/mL, the peak level (Cmax) was 346 ng/mL and the half-life was 106 min.
`Cc1cnc(Nc2cnn(C3CC(C)(C)OC(C)(C)C3)c2)nc1-c1ccc(C(=O)N[C@@H](C)C#N)cc1` [Example 173, (S)—N-(1-cyanoethyl)-4-(5-methyl-2-((1-(2,2,6,6-tetramethyltetrahydro-2H-pyran-4-yl)-1H-pyrazol-4-yl)amino)pyrimidin-4-yl)benzamide]: the results for the IC50 on JAK1, on JAK2 (setting [6]) and against TYK2 were 15.2 nM, below 0.25 nM and 1.07 nM, respectively. Besides, the microsomal CLint at 1 μM in data set [1] came to 69.4 µL/min/mg; in data set [2] it was 456 µL/min/mg. Moreover, in [5] (male, Guangxi Bama, minipig, topical or ocular, 25 μL/m^2 at 6 ml/mL, plasma, read-out: Plasma AUC0-last), the AUC(0-t) was 17.3 ng·h/mL. In [5], the “Dermis/plasma ratio (AUC)” value came to 273X. Also, the “Epiermis/plasma ratio (AUC)” value in data set [5] worked out at 4396X.

For the origin of these results see patent publication US12595253B2, “Benzamides of pyrazolylamino-pyrimidinyl derivatives, and compositions and methods thereof” (LYNK PHARMACEUTICALS CO. LTD., priority 2019, dated 2026).
